The compounds below were run against T1, TRPC3 (Homo sapiens, UniProt Q13507) (assay: whole-cell patch clamp of HEK293 cells transfected with hTRPC3, currents activated by GSK1702934A). Settings: 10 μM compound in presence of agonist GSK1702934A; HEK293 whole-cell peak current; read-out: hTRPC3 % Inhibition at 10 μM (mean ± SEM).
T1 sequence (Q13507 1-921): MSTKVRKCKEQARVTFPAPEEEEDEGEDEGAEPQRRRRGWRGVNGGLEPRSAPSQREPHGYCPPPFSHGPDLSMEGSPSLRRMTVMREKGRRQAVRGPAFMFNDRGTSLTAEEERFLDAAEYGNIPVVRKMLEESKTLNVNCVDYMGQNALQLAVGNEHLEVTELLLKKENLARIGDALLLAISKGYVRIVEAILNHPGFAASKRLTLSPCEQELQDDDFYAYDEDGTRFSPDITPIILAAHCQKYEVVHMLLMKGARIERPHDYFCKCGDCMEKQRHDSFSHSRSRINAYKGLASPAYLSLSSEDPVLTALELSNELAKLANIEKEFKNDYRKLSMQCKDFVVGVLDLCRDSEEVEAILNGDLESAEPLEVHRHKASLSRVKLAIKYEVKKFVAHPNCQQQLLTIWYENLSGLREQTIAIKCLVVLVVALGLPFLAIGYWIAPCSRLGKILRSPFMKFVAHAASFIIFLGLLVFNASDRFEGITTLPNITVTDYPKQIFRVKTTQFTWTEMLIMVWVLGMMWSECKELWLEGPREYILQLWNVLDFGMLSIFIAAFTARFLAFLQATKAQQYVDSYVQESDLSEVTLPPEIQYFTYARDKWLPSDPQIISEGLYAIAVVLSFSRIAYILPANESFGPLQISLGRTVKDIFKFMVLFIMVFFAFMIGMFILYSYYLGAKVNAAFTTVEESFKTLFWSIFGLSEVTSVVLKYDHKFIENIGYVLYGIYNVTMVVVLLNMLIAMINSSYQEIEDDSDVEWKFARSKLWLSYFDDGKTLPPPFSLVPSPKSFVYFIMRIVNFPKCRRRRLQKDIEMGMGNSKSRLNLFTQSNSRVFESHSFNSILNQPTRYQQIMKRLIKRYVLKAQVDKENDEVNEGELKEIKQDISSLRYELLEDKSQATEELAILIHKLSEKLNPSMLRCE
Format: cell-based
Design: expressed in transfected cells; host or cells: HEK293 (CRL-1573), transient transfection, pMO vector
Experimental: Human embryonic kidney 293 (HEK293; catalog number CRL-1573) cells were cultured in Dulbecco's modified Eagle's medium (Invitrogen) supplemented with 10% fetal bovine serum and 1% penicillin-streptomycin at 37° C. and 5% CO2. Constructs cloned in pMO (a pcDNA3-modified vector) were co-transfected with GFP-pMO, using Lipofectamine 2000 (Invitrogen) according to the manufacturer's instructions. Macroscopic currents in the whole-cell patch clamp configuration were recorded 18-24 h post-transfection. The extracellular solution contained 140 mM NaCl, 6 mM KCl, 2 mM MgCl2, 10 mM HEPES, and 10 mM glucose (pH 7.4). Pipettes were made of borosilicate glass (outer diameter, 1.5 mm; inner diameter, 1.10 mm; Sutter Instruments) and fire-polished with a resistance between 2.8 and 4.0 megaohms when filled with an intracellular solution that contained 140 mM CsCl, 5 mM EGTA, and 10 mM HEPES, pH 7.2. Currents were recorded with a Multiclamp 700B amplifier (Molecular Devices) using a 1-s ramp from −100 to 100 mV. Agonist and antagonists perfused were dissolved in the bath solution prior experiments: TRP channel agonists Allyl isothiocyanate (AITC; TRPA1), capsaicin (TRPV1), and menthol (TRPM8) were obtained from Sigma, GSK1016790A (TRPV4) from Cayman chemicals, and GSK1702934A (TRPC3, TRPC6 and TRPC7) from Tocris Bioscience. Antagonist Pyr3 was obtained from Tocris Bioscience, all other antagonists were synthesized in house. Data were acquired with a sampling rate of 20 kHz, low-pass filtered (10 kHz), and analyzed offline using Clampfit v10.4.2.0 (Molecular Devices).
Electrophysiology results were expressed as means±SD. Data were plotted, and sigmoidal fitting was done using OriginPro (from OriginLab), with the following Boltzmann function:
Using the patch clamp technique in the whole-cell configuration, compounds were screened by challenging hTRPC3 overexpressing HEK293 cells with GSK1702934A to activate TRPC3 and each of the synthesized compounds (10 μM) individually in the presence of the agonist.
To avoid tachyphylaxis and determine the IC50 of compound 22, each point of the dose response curve (FIG. 1B) was done individually on a cell and exchanging coverslips between cells. […] FIGS. 1D-1I show the inhibition of TRPC3-mediated currents by compound 22 and Pyr3 (serving as the reference control). […] Similar results were obtained when OAG was used as the agonist (data not shown).

Row | Structure (SMILES) | inhibition at 10 µM [%]
1 | CCNC(=O)c1cnn(-c2ccc(-n3ccc(Cl)c(Cl)c3=O)cc2)c1 [Compound 50, 1-(4-(3,4-dichloro-2-oxopyridin-1(2H)-yl)phenyl)-N-ethyl-1H-pyrazole-4-carboxamide] | 98.08 ± 0.85
2 | CCNC(=O)c1cnn(-c2ccc(-n3ccc(Cl)c(Cl)c3=O)cc2)c1Cl [Compound 51, 5-chloro-1-(4-(3,4-dichloro-2-oxopyridin-1(2H)-yl)phenyl)-N-ethyl-1H-pyrazole-4-carboxamide] | 72.3 ± 2.88
3 | CCNC(=O)c1cnn(-c2ccc(-n3ccc(Cl)c(Cl)c3=O)cc2)c1C#N [Compound 52, 5-cyano-1-(4-(3,4-dichloro-2-oxopyridin-1(2H)-yl)phenyl)-N-ethyl-1H-pyrazole-4-carboxamide] | 88.8 ± 6.37
4 | CCNC(=O)c1ncn(-c2ccc(-n3ccc(Cl)c(Cl)c3=O)cc2)c1C(F)(F)F [Compound 59, 1-(4-(3,4-dichloro-2-oxopyridin-1(2H)-yl)phenyl)-N-ethyl-5-(trifluoromethyl)-1H-imidazole-4-carboxamide] | 95.9 ± 3.72
5 | CCNC(=O)c1nnn(-c2ccc(-n3ccc(Cl)c(Cl)c3=O)cc2)c1C(F)(F)F [Compound 61, 1-(4-(3,4-dichloro-2-oxopyridin-1(2H)-yl)phenyl)-N-ethyl-5-(trifluoromethyl)-1H-1,2,3-triazole-4-carboxamide] | 47.1 ± 8.29
6 | CCNC(=O)c1nn(-c2ccc(-n3ccc(Cl)c(Cl)c3=O)cc2)nc1C(F)(F)F [Compound 63, 2-(4-(3,4-dichloro-2-oxopyridin-1(2H)-yl)phenyl)-N-ethyl-5-(trifluoromethyl)-2H-1,2,3-triazole-4-carboxamide] | 86.9 ± 3.83
7 | CCNC(=O)c1sc(-c2ccc(-n3ccc(Cl)c(Cl)c3=O)cc2)nc1C(F)(F)F [Compound 65, 2-(4-(3,4-dichloro-2-oxopyridin-1(2H)-yl)phenyl)-N-ethyl-4-(trifluoromethyl)thiazole-5-carboxamide] | 54.9 ± 4.61
8 | CC(=O)c1cnn(-c2ccc(-n3ccc(Cl)cc3=O)cc2)c1C(F)(F)F [Compound 66, 1-(4-(4-acetyl-5-(trifluoromethyl)-1H-pyrazol-1-yl)phenyl)-4-chloropyridin-2(1H)-one] | 60.4 ± 5.12
9 | CS(=O)(=O)c1cnn(-c2ccc(-n3ccc(Cl)c(Cl)c3=O)cc2)c1C(F)(F)F [Compound 73, 3,4-Dichloro-1-(4-(4-(methylsulfonyl)-5-(trifluoromethyl)-1H-pyrazol-1-yl)phenyl)pyridine-2(1H)-one] | 72.7 ± 7.96

Continued, values first:

Row | inhibition at 10 µM [%] | Structure (SMILES)
10 | 86 ± 2.8 | CCC(=O)Nc1cnn(-c2ccc(-n3ccc(Cl)c(Cl)c3=O)cc2)c1C(F)(F)F [Compound 58, N-(1-(4-(3,4-dichloro-2-oxopyridin-1(2H)-yl)phenyl)-5-(trifluoromethyl)-1H-pyrazol-4-yl)propionamide]
11 | 88.7 ± 2.83 | CC(=O)c1cnn(-c2ccc(-n3ccc(Cl)c(Cl)c3=O)cc2)c1C(F)(F)F [Compound 67, 1-(4-(4-acetyl-5-(trifluoromethyl)-1H-pyrazol-1-yl)phenyl)-3,4-dichloropyridin-2(1H)-one]
12 | 63.4 ± 4.83 | CCCC(=O)c1cnn(-c2ccc(-n3ccc(Cl)c(Cl)c3=O)cc2)c1C(F)(F)F [Compound 69, 1-(4-(4-butyryl-5-(trifluoromethyl)-1H-pyrazol-1-yl)phenyl)-3,4-dichloropyridin-2(1H)-one]
13 | 57.8 ± 8.74 | CC(=O)c1cnn(-c2ccc(-n3ccc(C)c(Cl)c3=O)cc2)c1C(F)(F)F [Compound 71, 1-(4-(4-acetyl-5-(trifluoromethyl)-1H-pyrazol-1-yl)phenyl)-3-chloro-4-methylpyridin-2(1H)-one]
14 | 52.1 ± 8.41 | CC(=O)c1cnn(-c2ccc(-n3cc(Cl)c(C)c(Cl)c3=O)cc2)c1C(F)(F)F [Compound 72, 1-(4-(4-acetyl-5-(trifluoromethyl)-1H-pyrazol-1-yl)phenyl)-3,5-dichloro-4-methylpyridin-2(1H)-one]

Same assay, conditions: agonist GSK1702934A; HEK293 whole-cell patch clamp; read-out: hTRPC3 IC50 (μM, mean ± SEM)

Row | IC50 [µM] | Structure (SMILES)
15 | 2.56 ± 0.52 | CCNC(=O)c1cnn(-c2ccc(-n3ccc(Cl)c(Cl)c3=O)cc2)c1 [Compound 50, 1-(4-(3,4-dichloro-2-oxopyridin-1(2H)-yl)phenyl)-N-ethyl-1H-pyrazole-4-carboxamide]
16 | 0.87 ± 0.17 | CCNC(=O)c1ncn(-c2ccc(-n3ccc(Cl)c(Cl)c3=O)cc2)c1C(F)(F)F [Compound 59, 1-(4-(3,4-dichloro-2-oxopyridin-1(2H)-yl)phenyl)-N-ethyl-5-(trifluoromethyl)-1H-imidazole-4-carboxamide]

Reference: US20230265068A1, “TRANSIENT RECEPTOR POTENTIAL CANONICAL 3 INHIBITORS AND METHODS OF USE THEREOF” (University of Tennessee Research Foundation, priority 2020, published 2023)
